Laboratory results as given in BindingDB's records for doi:10.7270/Q23R0R8T (Burnham Center For Chemical Genomics, 2010).

Target: Nucleotide-binding oligomerization domain-containing protein 2 (Homo sapiens, UniProt Q9HC29)
Test: NOD2 signaling inhibitors in MDP-stimulated cells, cell-based, uHTS, luminescence (AID 2001)

Nucleotide-binding oligomerization domain-containing protein 2, sequence (Q9HC29 whole entry, the tested form may be a part): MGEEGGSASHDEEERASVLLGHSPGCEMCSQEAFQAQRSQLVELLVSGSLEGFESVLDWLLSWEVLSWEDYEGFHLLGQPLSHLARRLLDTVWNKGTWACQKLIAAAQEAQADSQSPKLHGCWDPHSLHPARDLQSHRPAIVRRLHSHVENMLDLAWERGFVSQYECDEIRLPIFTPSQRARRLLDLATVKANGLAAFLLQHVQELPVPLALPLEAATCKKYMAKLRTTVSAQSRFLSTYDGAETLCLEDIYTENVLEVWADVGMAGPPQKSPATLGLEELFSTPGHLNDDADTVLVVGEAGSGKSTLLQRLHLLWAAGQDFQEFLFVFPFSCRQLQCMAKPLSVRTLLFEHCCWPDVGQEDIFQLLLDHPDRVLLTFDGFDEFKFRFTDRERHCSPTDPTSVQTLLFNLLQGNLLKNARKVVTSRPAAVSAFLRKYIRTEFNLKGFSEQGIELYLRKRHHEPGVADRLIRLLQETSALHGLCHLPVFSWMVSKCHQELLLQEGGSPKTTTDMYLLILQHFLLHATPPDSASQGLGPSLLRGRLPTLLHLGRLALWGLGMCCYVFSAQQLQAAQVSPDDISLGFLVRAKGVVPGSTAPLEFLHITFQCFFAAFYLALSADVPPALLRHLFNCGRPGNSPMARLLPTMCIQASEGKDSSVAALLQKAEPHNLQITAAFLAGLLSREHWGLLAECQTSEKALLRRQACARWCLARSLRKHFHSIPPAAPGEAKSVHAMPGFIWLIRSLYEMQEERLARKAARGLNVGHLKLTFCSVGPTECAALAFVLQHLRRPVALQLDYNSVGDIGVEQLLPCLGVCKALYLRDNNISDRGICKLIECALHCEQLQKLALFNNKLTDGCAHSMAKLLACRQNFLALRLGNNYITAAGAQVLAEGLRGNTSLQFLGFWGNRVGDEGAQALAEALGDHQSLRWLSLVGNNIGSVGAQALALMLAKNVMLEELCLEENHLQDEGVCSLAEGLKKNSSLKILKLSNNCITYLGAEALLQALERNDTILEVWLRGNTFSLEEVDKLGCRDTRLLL

| SMILES | IC50 |
| --- | --- |
| CCCCCCC1=Cc2c/c(=C3/NN=C(c4ccccc4OC)O3)c(=O)oc2=CC1=O [6-Hexyl-7-hydroxy-3-[5-(2-methoxy-phenyl)-[1,3,4]oxadiazol-2-yl]-chromen-2-one] | 8.48 µM |
| Cc1cc(CN=Nc2ncnc(N)c2[N+](=O)[O-])c(C)n1-c1ccccc1 | 6.1 µM |
| COc1ccc(NS(=O)(=O)c2ccc(N=NC(C)c3ccncc3)c([N+](=O)[O-])c2)cc1 (stereo unspecified) [MLS000393523] | 2.11 µM |
| Cc1ccc(O)c(/N=C/C2=CC(Cc3ccccc3)C=C([N+](=O)[O-])C2=O)c1 (stereo unspecified) [(6E)-6-[[(5-methyl-2-oxidanyl-phenyl)amino]methylidene]-2-nitro-4-(phenylmethyl)cyclohexa-2,4-dien-1-one] | 12.4 µM |
| C=CCN1C(=O)C(=NNC(=S)Nc2cccc(C)c2)c2ccccc21 [1-(3-methylphenyl)-3-[(Z)-(2-oxidanylidene-1-prop-2-enyl-indol-3-ylidene)amino]thiourea] | 1.18 µM |
| Cc1cc(CN=Nc2nc(N)ncc2[N+](=O)[O-])c(C)n1-c1ccccc1F [MLS000392273] | 6.02 µM |
| CCCOC1=CC(=O)C(C=NNC(=S)Nc2ccccc2[N+](=O)[O-])C=C1 (stereo unspecified) [1-(2-nitrophenyl)-3-[[(E)-(6-oxo-4-propoxy-1-cyclohexa-2,4-dienylidene)methyl]amino]thiourea] | 0.233 µM |
| CN1C(=O)C(=NNC(=S)Nc2ccccc2F)c2cc(S(=O)(=O)N3CCOCC3)ccc21 [SMR000314843] | 9.77 µM |
| O=C1C(=O)N(c2nccs2)C(c2ccccc2)C1C(=O)c1ccc2c(c1)OCCO2 (stereo unspecified) | 18.6 µM |
| Cc1cc(N=NCc2ccccc2[N+](=O)[O-])nc(-n2nc(C)cc2C)n1 [SMR000426946] | 6.55 µM |
| CCCCCCC1=Cc2c/c(=C3/NN/C(=C4/C=CC=CC4=O)O3)c(=O)oc2=CC1=O [(3E)-6-hexyl-3-[(5E)-5-(6-oxocyclohexa-2,4-dien-1-ylidene)-1,3,4-oxadiazolidin-2-ylidene]chromene-2,7-dione] | 4.36 µM |
| COc1cc(CN=Nc2nc3c(c(=O)n(C)c(=O)n3C)n2Cc2ccccc2)ccc1OC(=O)c1ccco1 [[4-[[(7-benzyl-1,3-dimethyl-2,6-dioxopurin-8-yl)hydrazinylidene]methyl]-2-methoxyphenyl] furan-2-carboxylate] | 5.98 µM |
| C=CCN1C(=O)C(=NNC(=S)Nc2cccc(OC)c2)c2ccccc21 [SMR000132469] | 1.76 µM |
| CCOc1ccc(-c2csc(/C(C#N)=C/C3C=CC(=O)C([N+](=O)[O-])=C3)n2)cc1 (stereo unspecified) [SMR000237723] | 2.58 µM |
| Cc1ccc(C)c(SCC(=O)OCC(=O)C(C#N)c2nc3ccccc3[nH]2)c1 (stereo unspecified) [MLS000392255] | 4.92 µM |
| Cc1cc(SCC(=O)OCC(=O)C(C#N)c2nc3ccccc3[nH]2)c(C)cc1Br (stereo unspecified) | 5.41 µM |
